Data on 18 compounds can be found in US9796700B2 (Celgene CAR LLC, priority 2013, dated 2017).

The structures appear in SMILES notation. Read-outs that look alike come from different tables or passages of the source.

For one test, the system named is HT-29 cells. Description: Measurement of inhibition of cancer cell proliferation (CellTiterGlo). The test is classed as cell-based. The conditions noted are these: Homo sapiens, 72 hours. As to the method:
Measurement of Inhibition of Cancer Cell Proliferation
HT-29 cells were split and 3000 cells in 100 μl of growth medium were added per well of a flat-bottom 96-well plate. A two-fold test compound solution in serum-free RPM1640 was made, starting at 5,000 nM. Then, 3-fold serial dilutions were made across the plate from well 1 to well 11. Well 12, the last well in a row on the plate, was left as untreated control. 100 μl compound solutions were then transferred to the wells, so the total volume of media was 200 μl per well. Plates were returned to a 37° C. incubator, and the cells were cultured for 72 hours. To measure cell proliferation after 72 hours, media was discarded from the plates, 50 μl/well of fresh medium was added, and 50 μl CellTiterGlo solution was added (Promega Cat#G7573). The plate was covered with a dark lid and incubated for 10 min. A sealing tape was applied to the bottom of the plate, and the plate was read in a luminescence plate reader. […] A 2-fold serial dilution was used to generate 8 cell densities from 50,000-390 cells per well in 50 μl media. 50 μl CellTiterGlo was added per well, and the plate was read in a luminescence plate reader after 10 min. The reading was plotted vs. cell number to generate a standard curve and the equation of the curve fit. The compound-treated sample luminescence readings were converted to cell numbers using the equation. The percent of inhibition, using untreated control as 100% growth, was then calculated. GI50 was then calculated by GraphPad Prism.

The next test concerns the target Erk1 (Homo sapiens (Human), UniProt P27361). Description: Protein Mass Modification Assay (intact protein MALDI). Type of test: binding. The procedure, abridged: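 Human Erk1 was incubated 60 min at room temperature with a 10-fold molar excess of compound, then analysed as intact protein by MALDI with sinapinic acid matrix. The centroid mass shift versus untreated protein was divided by compound molecular weight to give percent modified protein.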

The test system of test [1] is ERK1 phosphorylation of its substrate RSK in HT29 cells. Description: pRSK MSD Assay in HT29 cells. Type of test: cell-based. The conditions noted are these: read-out: ERK1 PRSK MSD HT29 EC50. As to the method:
The protocol below describes an assay to measure the kinase activity of ERK1 to phosphorylate its substrate, RSK, in the presence of a test compound. This experiment was conducted using a Mesoscale Discovery plate. The day before the assay, HT29 cells were split and plated at 50,000 cells/well in complete growth media. After allowing cells to adhere, the media was removed and replaced with media containing 0.1% FBS and incubated overnight. Blank MDS plates were coated with 25 μl/well RSK capture antibody and incubated at 4° C. overnight. The next day, the media was removed and replaced with 100 μl of media containing a test compound and incubated for 120 minutes at 37° C. The media was removed and replaced with 55 μl of well lysis buffer with protease and phosphatase inhibitors provided in the kit, followed by incubation at 4° C. for 30 minutes. 50 μl of lysate was transferred to a blocked MSD plate, followed by incubation at room temperature for 2 hours under constant shaking. The plate was washed 3 times with MSD wash buffer (cat#R617TX), and 25 μl/well phospho-RSK (pRSK) detection antibody was added with an appropriate Sulfo-tagged anti-species detection antibody diluted in 1% BSA in MSD wash buffer. This mixture was incubated for 1 hour at room temperature under constant shaking. The plate was washed 3 times, and 150 μl 1×MSD read buffer was added, followed by signal detection in an MSD plate reader.

The target in another test is MEK1 activated ERK1 (Homo sapiens (Human), UniProt P27361). Description: Omnia continuous-read kinase assay for potency against MEK1 activated ERK1. The test is classed as biochemical. The conditions noted are these: MEK1 activated ERK1, WT, ATP at KM. The essentials: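 Apparent IC50 came from initial reaction slopes (RFU vs time) plotted against log inhibitor with a variable-slope fit. Reactions were started with ERK1 (4 nM final) added to 50 μM ATP, roughly at its appKM, and 10 μM Sox-conjugated ST17 peptide in 20 mM Tris pH 7.5, 5 mM MgCl2. Fluorescence was monitored every 71 seconds.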
Sequence of MEK1 activated ERK1 (P27361 whole entry): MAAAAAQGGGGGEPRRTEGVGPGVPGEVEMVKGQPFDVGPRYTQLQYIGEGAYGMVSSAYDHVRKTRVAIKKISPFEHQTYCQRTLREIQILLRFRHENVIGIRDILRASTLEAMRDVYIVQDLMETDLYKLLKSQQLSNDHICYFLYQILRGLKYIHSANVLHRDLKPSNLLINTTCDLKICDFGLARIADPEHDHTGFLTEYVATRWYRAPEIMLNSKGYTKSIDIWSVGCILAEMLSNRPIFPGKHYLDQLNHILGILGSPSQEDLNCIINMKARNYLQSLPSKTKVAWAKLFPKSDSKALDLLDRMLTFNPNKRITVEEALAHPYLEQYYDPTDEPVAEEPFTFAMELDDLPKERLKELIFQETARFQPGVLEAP

The mark [2] stands for this setting: Homo sapiens, HT-29, HT29 cells.

Sequence of Erk1 (P27361 whole entry, looked up): as the sequence (P27361 whole entry) above

As for `C=CC(=O)Nc1cc(OC)ccc1Nc1nc(Nc2ccc(N3CCN(C(C)=O)CC3)cc2OC)ncc1Cl` [Compound I-152, N-(2-((2-((4-(4-acetylpiperazin-1-yl)-2-methoxyphenyl)amino)-5-chloropyrimidin-4-yl)amino)-5-methoxyphenyl)acrylamide], the GI50 in the test with HT-29 cells lay within 501 to 999 nM. Further, the “ERK1 Mass Mod (%)” value on Erk1 was “E (provided a mass modification of ≧70%)”.
The corresponding values for `C=CC(=O)Nc1ccccc1Nc1nc(Nc2cc(C(=O)NOCCO)ccc2C)ncc1Cl` [Compound I-198, 3-((4-((2-acrylamidophenyl)amino)-5-chloropyrimidin-2-yl)amino)-N-(2-hydroxyethoxy)-4-methylbenzamide] are 101 to 500 nM and “E (provided a mass modification of ≧70%)”.
On to `C=CC(=O)Nc1cc(C)ccc1Nc1nc(Nc2nc(OC)ncc2Cl)ncc1C(F)(F)F` [Compound I-344, N-(2-((2-((5-chloro-2-methoxypyrimidin-4-yl)amino)-5-(trifluoromethyl)pyrimidin-4-yl)amino)-5-methylphenyl)acrylamide], for which the EC50 in test [1] (setting [2]) is under 100 nM. The IC50 at MEK1 activated ERK1 is under 100 nM. For the same compound, at Erk1, the “ERK1 Mass Mod (%)” value is reported as “E (provided a mass modification of ≧70%)”.
For the compound `C=CC(=O)Nc1cc(C)ccc1Nc1nc(Nc2nc(OC)ncc2C)ncc1C(F)(F)F` [Compound I-347, N-(2-((2-((2-methoxy-5-methylpyrimidin-4-yl)amino)-5-(trifluoromethyl)pyrimidin-4-yl)amino)-5-methylphenyl)acrylamide], in test [1] (setting [2]), the EC50 was 101 to 500 nM. Moreover, the IC50 on MEK1 activated ERK1 fell in the range of 101 to 500 nM. Moreover, the “ERK1 Mass Mod (%)” value at Erk1 is on record as “E (provided a mass modification of ≧70%)”.
On to `C=CC(=O)Nc1ccccc1Nc1nc(NC2CCC(=O)CC2)ncc1C(F)(F)F` [Compound I-23, N-(2-((2-((4-Oxocyclohexyl)amino)-5-(trifluoromethyl)pyrimidin-4-yl)amino)phenyl)acrylamide], for which the EC50 in test [1] (setting [2]) was 101 to 500 nM. For the same compound, at MEK1 activated ERK1, the IC50 is under 100 nM. Besides, on Erk1, the “ERK1 Mass Mod (%)” value is given as “E (provided a mass modification of ≧70%)”.
Regarding `C=CC(=O)Nc1ccccc1Nc1nc(Nc2cc(OC)nc(N3CCN(C)CC3)c2)ncc1C(F)(F)F` [Compound I-324, N-(2-((2-((2-methoxy-6-(4-methylpiperazin-1-yl)pyridin-4-yl)amino)-5-(trifluoromethyl)pyrimidin-4-yl)amino)phenyl)acrylamide], the EC50 in test [1] (setting [2]) lay within 101 to 500 nM. In addition, the IC50 at MEK1 activated ERK1 was under 100 nM. For the same compound, on Erk1, the “ERK1 Mass Mod (%)” value is “E (provided a mass modification of ≧70%)”.
Consider `C=CC(=O)Nc1ccccc1Nc1nc(N[C@H]2CC[C@H](F)CC2)ncc1C(F)(F)F` [Compound I-111, N-(2-((2-(trans-(4-fluorocyclohexyl)amino)-5-(trifluoromethyl)pyrimidin-4-yl)amino)phenyl)acrylamide], for which, in test [1] (HT29 cells), the EC50 was 101 to 500 nM. Further, the IC50 at MEK1 activated ERK1 fell in the range of 101 to 500 nM. The “ERK1 Mass Mod (%)” value on Erk1 is “E (provided a mass modification of ≧70%)”.
Take `C=CC(=O)Nc1ccccc1Nc1nc(Nc2c[nH]nc2C)ncc1C(F)(F)F` [Compound I-330, N-(2-((2-((3-methyl-1H-pyrazol-4-yl)amino)-5-(trifluoromethyl)pyrimidin-4-yl)amino)phenyl)acrylamide]: the EC50 in test [1] (setting [2]) is over 1000 nM. For the same compound, the IC50 on MEK1 activated ERK1 was over 1000 nM. In addition, at Erk1, the “ERK1 Mass Mod (%)” value is “E (provided a mass modification of ≧70%)”.
On to `C=CC(=O)Nc1ccccc1Nc1nc(N[C@H]2CC[C@@H](F)CC2)ncc1C(F)(F)F` [Compound I-110, N-(2-((2-(cis-(4-fluorocyclohexyl)amino)-5-(trifluoromethyl)pyrimidin-4-yl)amino)phenyl)acrylamide], for which the EC50 in test [1] (setting [2]) was in the range of 101 to 500 nM. For the same compound, the IC50 on MEK1 activated ERK1 fell in the range of 101 to 500 nM. Besides, the “ERK1 Mass Mod (%)” value at Erk1 was “E (provided a mass modification of ≧70%)”.
`CCC(=O)Nc1cc(C)ccc1Nc1nc(Nc2cc(OC)ncc2C)ncc1C(F)(F)F` [Compound I-352, N-(2-((2-((2-methoxy-5-methylpyridin-4-yl)amino)-5-(trifluoromethyl)pyrimidin-4-yl)amino)-5-methylphenyl)propionamide]: the EC50 in test [1] (setting [2]) was over 1000 nM. Also, the IC50 on MEK1 activated ERK1 was over 1000 nM. In addition, the “ERK1 Mass Mod (%)” value on Erk1 is “G (proived a mass modification ≦30%)”.
On to `C=CC(=O)Nc1cc(C)ccc1Nc1nc(Nc2ncc(F)c(OC)n2)ncc1C(F)(F)F` [Compound I-356, N-(2-((2-((5-fluoro-4-methoxypyrimidin-2-yl)amino)-5-(trifluoromethyl)pyrimidin-4-yl)amino)-5-methylphenyl)acrylamide], for which the GI50 in the test on HT-29 cells was in the range of 101 to 500 nM. On Erk1, the “ERK1 Mass Mod (%)” value is given as “E (provided a mass modification of ≧70%)”.
For the compound `C=CC(=O)Nc1cc(C)ccc1Nc1nc(Nc2cc(OC)ncn2)ncc1C(F)(F)F` [Compound I-348, N-(2-((2-((6-methoxypyrimidin-4-yl)amino)-5-(trifluoromethyl)pyrimidin-4-yl)amino)-5-methylphenyl)acrylamide], the EC50 in test [1] (setting [2]) was 501 to 999 nM. Besides, the IC50 on MEK1 activated ERK1 is over 1000 nM. Further, at Erk1, the “ERK1 Mass Mod (%)” value is “G (proived a mass modification ≦30%)”.
With `C=CC(=O)Nc1ccccc1Nc1nc(Nc2ccc(N3CCN(C(C)=O)CC3)cc2OC)ncc1C(F)(F)F` [Compound I-66, N-(2-((2-((4-(4-Acetylpiperazin-1-yl)-2-methoxyphenyl)amino)-5-(trifluoromethyl)pyrimidin-4-yl)amino)phenyl)acrylamide], the GI50 in the test with HT-29 cells lay in the range of 101 to 500 nM. The “ERK1 Mass Mod (%)” value at Erk1 is reported as “E (key: E: provided a mass modification of ≧70%; F: provided a mass modification of 31-69%; G: proived a mass modification ≦30%)”.
`C=CC(=O)Nc1cc(C)ccc1Nc1nc(N[C@H]2CCCN(C(=O)CC)C2)ncc1C(F)(F)F` [Compound I-41, (S)—N-(5-Methyl-2-((2-((1-propionylpiperidin-3-yl)amino)-5-(trifluoromethyl)pyrimidin-4-yl)amino)phenyl)acrylamide]: in test [1] (setting [2]), the EC50 is 101 to 500 nM. Moreover, on MEK1 activated ERK1, the IC50 was under 100 nM. The “ERK1 Mass Mod (%)” value at Erk1 is listed as “E (provided a mass modification of ≧70%)”.
As for `C=C(C)S(=O)(=O)Nc1ccccc1Nc1nc(NC2CCC(=O)CC2)ncc1C(F)(F)F` [Compound I-40, N-(2-((2-((4-Oxocyclohexyl)amino)-5-(trifluoromethyl)pyrimidin-4-yl)amino)phenyl)prop-1-ene-2-sulfonamide], the EC50 in test [1] (setting [2]) was over 1000 nM. Moreover, the IC50 on MEK1 activated ERK1 is under 100 nM. Moreover, the “ERK1 Mass Mod (%)” value at Erk1 is “F (provided a mass modification of 31-69%)”.
For the compound `C=CC(=O)Nc1ccccc1Nc1nc(NC2CCOCC2)ncc1Cl` [Compound I-108, N-(2-((5-chloro-2-((tetrahydro-2H-pyran-4-yl)amino)pyrimidin-4-yl)amino)phenyl) acrylamide], in test [1] (setting [2]), the EC50 was under 100 nM. Besides, the IC50 at MEK1 activated ERK1 is under 100 nM. Also, the “ERK1 Mass Mod (%)” value at Erk1 is listed as “E (provided a mass modification of ≧70%)”.
In the case of `C=CC(=O)Nc1cc(Cl)ccc1Nc1nc(Nc2cc(OC)ncc2C)ncc1Cl` [Compound I-248, N-(5-chloro-2-((5-chloro-2-((2-methoxy-5-methylpyridin-4-yl)amino)pyrimidin-4-yl)amino)phenyl)acrylamide], the EC50 in test [1] (setting [2]) is 101 to 500 nM. Further, on MEK1 activated ERK1, the IC50 is under 100 nM. In addition, the “ERK1 Mass Mod (%)” value on Erk1 is reported as “E (provided a mass modification of ≧70%)”.
In turn, `C=CC(=O)Nc1ccccc1Nc1nc(Nc2ccc(N3CCN(C(C)=O)CC3)cc2OC)ncc1Cl` [Compound I-149, N-(2-((2-((4-(4-acetylpiperazin-1-yl)-2-methoxyphenyl)amino)-5-chloropyrimidin-4-yl)amino)phenyl)acrylamide] yielded a GI50 in the test on HT-29 cells of 101 to 500 nM. Besides, the “ERK1 Mass Mod (%)” value at Erk1 is recorded as “E (key: E: provided a mass modification of ≧70%; F: provided a mass modification of 31-69%; G: proived a mass modification ≦30%)”.
